For `Cc1ccc2[nH]cc(CC(N)C(=O)O)c2c1` (racemic), the melting point was 280 to 282 °C.
`Cc1cc2c(s1)=Nc1ccccc1NC=2N1CCN(C)CC1` gave a melting point of 195 °C.
For `O=[N+]([O-])c1ccc(O)c2ccccc12`, the melting point was 166 °C.
In the case of `COc1ccccc1-c1nnc2n1NC(c1ccco1)S2` (stereo not given), the melting point is reported as 226 °C.
`CC(C)(C)c1cc([N+](=O)[O-])cc([N+](=O)[O-])c1O` showed a melting point of 126 °C.
Molecule `Oc1ccccc1N=CC=Nc1ccccc1O` has a melting point of 201 to 205 °C.
`Cn1c(=O)c(C2=NNC(=O)C2=NNc2ccc(I)cc2)c(O)c2ccccc21` gave a melting point of 262 °C.
With `c1ccc2c(-c3cccc4ccccc34)cccc2c1` the melting point was 160 °C.
`O=C(O)CC1C=CCC1` (stereo not given) gave a melting point of 19 °C.
With `Cc1cc(Br)c(N)c([N+](=O)[O-])c1` the melting point was 58 to 59 °C.
Molecule `Nc1ccncc1C(F)(F)F` has a melting point of 100 °C.
`COC(=O)[C@H]1C[C@]2(Sc3ccccc3)O[C@@]1(c1ccc(OC)cc1)c1c2cc(Cl)nc1Cl` gave a melting point of 118 °C.
Molecule `CC(C(=O)NCCO)c1ccc(-c2ccccc2)c(F)c1` (stereo not given) has a melting point of 94 to 96 °C.
`CC(C)OC=O` gave a melting point of -80 °C.
For `FC(F)(F)C(F)(F)C(F)(F)C(F)(F)C(F)(F)C(F)(F)C(F)(F)F`, the melting point was -78 °C.
For `NC(=O)Cc1ccccc1`, the melting point was 157 °C.
For `CC(=O)CCc1c[nH]c2ccccc12`, the melting point was 94 to 96 °C.
`O=C(/C(=N/O)c1ccccc1)c1ccc2c3c(cccc13)CC2` gave a melting point of 204 °C.
`CCCCCC(O)CCCCC` gave a melting point of 25 °C.
In the case of `NC(=O)C1CC1`, the melting point is reported as 124 °C.
Work on `C=CC(C)(CCC=C(C)C)OC(=O)C(C)C` (stereo not given) yielded a melting point of under 25 °C.
Molecule `CC(C1=CCC(C(=O)O)C(C)(C)O1)(c1ccccc1)c1ccccc1` (stereo not given) has a melting point of 145 °C.
Molecule `Cc1ccc(N)c(Br)c1` has a melting point of 26 °C.
Molecule `CC(=O)C=CC=Cc1ccccc1` has a melting point of 68 °C.
Work on `Cc1ccc(NN=C2SC(=N)NC2=O)cc1` yielded a melting point of 265 °C.
Work on `Cc1c(N(C)C)c(=O)n(-c2ccccc2)n1C` yielded a melting point of 134 °C.
For `Nc1ccc(C=CC(=O)O)cc1`, the melting point was 122 °C.
`Cn1nc(-c2ccco2)cc1CO` showed a melting point of 83 to 85 °C.
For `CCCCN1C(=O)c2ccccc2C1=O`, the melting point was 34 °C.
For `CCOC(=O)C12C(c3ccccc3OP1(=O)OCC)C1(C(=O)OCC)C2c2ccccc2OP1(=O)OCC` (stereo not given), the melting point was 249 to 251 °C.
`O=S(=O)(c1ccccc1)c1cccs1` showed a melting point of 123 °C.
Work on `Cc1ccc(S(=O)(=O)NCCN(CCN(CCNS(=O)(=O)c2ccc(C)cc2)S(=O)(=O)c2ccc(C)cc2)S(=O)(=O)c2ccc(C)cc2)cc1` yielded a melting point of 112 °C.
In the case of `CCOc1cc(OCC)cc(OCC)c1`, the melting point is reported as 43.5 °C.
With `CC=CC(C)C(C)C=CC` (stereo not given) the melting point was -64.8 °C.
For `COc1ccc(Cl)c(N)c1`, the melting point was 27 °C.
`O=C(O)CCN1C(=O)C=CC1=O` gave a melting point of 104 °C.
`CC(C)c1ncc[nH]1` gave a melting point of 129 °C.
Molecule `O=c1oc2ccccc2c(O)c1C1CC(c2ccc(-c3ccc(Br)cc3)cc2)Cc2ccccc21` (stereo not given) has a melting point of 230 °C.
Molecule `CC(C)(C)OC(=O)NN1CCCC1C(=O)O` (stereo not given) has a melting point of 134 to 137 °C.
In the case of `CC(CCC(O)(Cl)Cl)C1CCC2C3C(O)CC4CC(O)CCC4(C)C3CC(O)C12C` (stereo not given), the melting point is reported as 162 to 170 °C.
In the case of `Cc1ccc(C(c2ccc(C)o2)c2cc([N+](=O)[O-])cc(Br)c2O)o1`, the melting point is reported as 153 °C.
With `Cc1nc(-c2ccc(CO)cc2)cs1` the melting point was 71 to 74 °C.
In the case of `OC(Cn1ccnc1)c1ccc(Cl)cc1Cl` (stereo not given), the melting point is reported as 134 to 138 °C.
In the case of `CCCc1nc(OC(C)=O)n(-c2ccccc2)n1`, the melting point is reported as 84 °C.
`CC(C)(C)OC(=O)NCCNc1ccc(C(F)(F)F)cc1N` showed a melting point of 129 to 132 °C.
Work on `CC(CCC(=O)O)c1ccccc1` (stereo not given) yielded a melting point of 13 °C.
`COc1c(OC)c(OC(C)=O)c2c(C#N)cccc2c1OC(C)=O` showed a melting point of 152 °C.
Work on `N#Cc1cnc2ccccc2c1` yielded a melting point of 109 °C.
With `CC(=O)Nc1cc(N)ccc1C` the melting point was 141 to 142 °C.
Work on `CC1(C)c2ccccc2NC1C(N)=O` (stereo not given) yielded a melting point of 168 to 170 °C.
In the case of `CCSC(SCC)=C(C#N)c1ccccn1`, the melting point is reported as 160 to 162 °C.
`CN1C(CSCC(F)(F)F)Nc2cc(Cl)c(S(N)(=O)=O)cc2S1(=O)=O` (stereo not given) gave a melting point of 214 °C.
Molecule `O=Cc1cccc(N2CCOCC2)c1` has a melting point of 68 to 70 °C.
`CCC(CC)(CO)CO` gave a melting point of 61.5 °C.
`N#Cc1cc(F)c(F)c(F)c1` showed a melting point of 46 °C.
For `Nc1c([N+](=O)[O-])ccc2ncccc12`, the melting point was 272 to 273 °C.
Molecule `O=C(Cl)c1ncoc1-c1ccccc1` has a melting point of 74 to 79 °C.
`Cl[Si](Cl)(Cl)CCC12CC3CC(CC(C3)C1)C2` gave a melting point of 36 °C.
In the case of `CN1CCNC(=O)CCSCCC1=O`, the melting point is reported as 185 to 187 °C.
`O=S(=O)(Cl)c1cccc2ccccc12` gave a melting point of 68 °C.
With `Cc1onc(-c2ccccc2)c1C=O` the melting point was 41 to 43 °C.
Molecule `OCc1csc2ccc(Br)cc12` has a melting point of 79 to 81 °C.
Molecule `COC(=O)c1cnc(NN)nc1C(F)(F)F` has a melting point of 132 to 134 °C.
`Cc1ccc(C)c(C)n1` gave a melting point of 37 °C.
For `N#C/C(=N/Nc1ccc(Cl)cc1)c1nc(-c2ccccc2)cs1`, the melting point was 168 °C.
In the case of `CC1C(=O)CCC2C1(C)CCC1C2(C)CCC2(C)C3CC(C)(C)CCC3(C)CCC12C` (stereo not given), the melting point is reported as 263 °C.
For `ICC(CI)(CI)CI`, the melting point was 225 °C.
`CCCCCc1ccc(C(C)=NO)cc1` gave a melting point of 68 °C.
With `O=S(=O)(c1ccccc1)n1c(CBr)cc2ccccc21` the melting point was 116 to 117 °C.
For `NC1=NC(=O)C(c2ccccc2)O1` (stereo not given), the melting point was 256 °C.
Molecule `O=C1OC(C2COC3(CCCCC3)O2)C2OC3(CCCCC3)OC12` (stereo not given) has a melting point of 110 to 113 °C.
Molecule `CCOc1ccc(C(=O)O)cc1` has a melting point of 198 °C.
With `O=C1CCCN1c1ccc(Br)cc1` the melting point was 98 to 101 °C.
`S=C=Nc1ccc(N=Nc2ccccc2)cc1` gave a melting point of 97 °C.
`CC(C)(C)c1ccc(C2CCC3(CC2)Cc2ccc(OS(=O)(=O)C(F)(F)F)cc2C3)cc1` (stereo not given) showed a melting point of 122 to 124 °C.
Work on `O=S(=O)(Cl)c1ccc(F)cc1` yielded a melting point of 36.5 °C.
In the case of `COC(=O)[C@H](CCC(=O)O)NC(=O)OCc1ccccc1`, the melting point is reported as 68 to 70 °C.
With `CN(C)c1ccc(C2(c3ccc(N(C)C)cc3)OC(=O)c3cc(N(C)C)ccc32)cc1` the melting point was 182 °C.
With `Nc1cccc(C(=O)O)c1O` the melting point was 240 °C.
`O=P1(NCCCl)OCCCN1CCCl` (stereo not given) showed a melting point of 43.4 °C.
For `CCCCCCCCOC(=O)CC`, the melting point was -42.6 °C.
`O=C(CCl)NCO` gave a melting point of 100 °C.
For `Clc1ccc(C2C3CCc4ccccc4C3=NN2c2ccccc2)cc1` (stereo not given), the melting point was 168 to 170 °C.
For `O=[N+]([O-])c1cccc2scc(Br)c12`, the melting point was 120 to 122 °C.
Work on `OCc1ccc2nccn2c1` yielded a melting point of 106 to 108 °C.
Molecule `COC(=O)c1cncc(Br)c1` has a melting point of 98 to 100 °C.
Work on `COC=C(C(=O)OC)C(=O)OC` yielded a melting point of 43 °C.
Work on `CC(=O)OC1CCC2(C)C(CCC3C2CCC2(C)C3CCC23OCCO3)C1` (stereo not given) yielded a melting point of 153 °C.
Molecule `Fc1c(F)c(-c2c(F)c(F)c(Br)c(F)c2F)c(F)c(F)c1Br` has a melting point of 113 to 115 °C.
Molecule `CCOC(=O)c1c2ccccc2nn1C` has a melting point of 50 to 52 °C.
For `CCCCC(c1ccccc1)c1ccccc1`, the melting point was -12 °C.
Molecule `ClCCCc1ccccc1` has a melting point of -27 °C.
`CC(=O)c1sc(-c2ccccc2)cc1N` gave a melting point of 135 to 137 °C.
In the case of `COc1ccc2nc(C)ccc2c1`, the melting point is reported as 64 °C.
Work on `COc1ccc(C(=O)C2=NOC3C(=O)N(c4ccc(Br)cc4)C(=O)C23)cc1` (stereo not given) yielded a melting point of 124 °C.
For `O=C(O)c1cc(F)ccc1C(F)(F)F`, the melting point was 82 °C.
For `CC(NC(=O)CCCCNC(=O)C12CC3CC(CC(C3)C1)C2)C(=O)NC(CCC(=O)O)C(N)=O` (stereo not given), the melting point was 200 °C.
With `O=C(O)C#CC(=O)O` the melting point was 180 to 187 °C.
In the case of `CCOC(=O)CNC(c1ccccc1)(c1ccccc1)c1ccccc1`, the melting point is reported as 114 °C.
With `Nc1ccnc2ccccc12` the melting point was 155 °C.
In the case of `CC(=O)OCC(=O)C1CCC2C3CCC4=CC(=O)CCC4(C)C3CCC12C` (stereo not given), the melting point is reported as 157 °C.
Work on `CC(=O)c1sc(-c2ccc(Cl)cc2)cc1N` yielded a melting point of 138 to 140 °C.
Molecule `O=C1c2c(O)cccc2C(C2OC(CO)C(O)C(O)C2O)c2cc(CO)cc(O)c21` (stereo not given) has a melting point of 148 °C.
For `CCCCC1CCCC1`, the melting point was -108 °C.
Molecule `CN(C)c1ccccc1[N+](=O)[O-]` has a melting point of -20 °C.
`CC(C)(C)OC(=O)N1CCC(C#N)CC1` gave a melting point of 47 °C.
With `CC(C)(C)CC(=O)OCC(=O)C12OC(C)(C)OC1CC1C3CCC4=CC(=O)C=CC4(C)C3(F)C(O)CC12C` (stereo not given) the melting point was 295 °C.
For `O=C(OCCc1ccc(CCOC(=O)c2ccccc2)cc1)c1ccccc1`, the melting point was 137 °C.
`CC1=CC2OC3C(O)CC(C)(C34CO4)C2(CO)C(O)C1=O` (stereo not given) gave a melting point of 152 °C.
`CC(N)CC(=O)O` (stereo not given) gave a melting point of 193 °C.
`CCCCC(CC)COC(=O)OOC(C)(C)C` (stereo not given) gave a melting point of -50 °C.
Work on `Oc1ccc(C(O)(c2ccccc2)c2ccc(O)c3ccccc23)c2ccccc12` yielded a melting point of 232 °C.
Work on `COc1cccc(OC)c1/C=N/n1c(S)nnc1C(F)(F)F` yielded a melting point of 178 °C.
`O=C(c1ccc(Br)cc1)c1noc(-c2ccc(Br)cc2)c1S(=O)(=O)c1ccccc1` gave a melting point of 155 °C.
With `N#CC1C(=N)Oc2c(c(=O)oc3ccccc23)C1c1ccc(Br)cc1` (stereo not given) the melting point was 254 °C.
With `NCC(O)CN` the melting point was 43 °C.
With `COC(=O)C(C)Oc1ccc(Oc2ncc(C(F)(F)F)cc2Cl)cc1` (stereo not given) the melting point was 56 °C.
`O=C(Oc1ccccc1)n1c(C(F)(F)F)nc2cc(Cl)c(Cl)cc21` gave a melting point of 103 °C.
Work on `COc1cc2c(cc1OC)C(c1cc(Cl)ccc1[N+](=O)[O-])=NCC2` yielded a melting point of 169 to 170 °C.
With `Nc1ccc(C(=O)O)cn1` the melting point was 312 °C.
`COc1ccc(CCN2CCC(Nc3nc4ccccc4n3Cc3ccc(F)cc3)CC2)cc1` showed a melting point of 149 °C.
`c1ccc(CCCCc2ccccc2)cc1` gave a melting point of 52.5 °C.
Molecule `Cc1cc(=O)oc(C)c1C(=O)Oc1cccc(Cl)c1` has a melting point of 96 °C.
In the case of `Cn1ccc2c1CC(C)(C)CC2=O`, the melting point is reported as 109 °C.
Work on `NS(=O)(=O)c1cccc(/C(=N\O)c2ccccc2)c1` yielded a melting point of 155 °C.
